The PolyMetriX glass transition set

| SMILES | glass transition temperature [°C] |
| --- | --- |
| *CC(*)(C)C(=O)OC1CCCCC1C(C)(C)C (repeat unit) | 185.00 |
| *CC(*)(C)C(=O)OCc1ccc2c(c1)c1ccccc1n2CCCCCCCC (repeat unit) | 45.00 |
| *O[Si](*)(C)CCCC(=O)OC (repeat unit) | -72.00 |
| *CC(*)C(=O)OCCCCC (repeat unit) | -57.00 |
| *c1nnc(-c2cc(CCCCCCCCCC)c(-c3sc(-c4nnc(-c5cc(OCCCCCCCC)c(*)cc5OCCCCCCCC)o4)cc3CCCCCCCCCC)s2)o1 (repeat unit) | 53.80 |
| *CCCCCCCCCCOC(=O)NCc1ccc(CNC(=O)O*)cc1 (repeat unit) | 49.00 |
| *O[Si](*)(C)CCCOc1ccc(C(=O)Oc2ccc(-c3ccc(OC(=O)c4cc(OCC)c(OCC)c(OCC)c4)cc3)cc2)cc1 (repeat unit) | 61.30 |
| *CC(*)c1ccc(COCCOCC)cc1 (repeat unit) | 0.00 |
| *CCCCCCCCN1C(=O)c2ccc(C(c3ccc4c(c3)C(=O)N(*)C4=O)(C(F)(F)F)C(F)(F)F)cc2C1=O (repeat unit) | 155.00 |
| *Oc1ccc(S(=O)(=O)c2ccc(Oc3ccc(C4(c5ccc(*)cc5)CCCCC4)cc3)cc2)cc1 (repeat unit) | 226.00 |
| *c1ccc(Oc2cc(C(C)(C)C)c(Oc3ccc(-n4c(=O)c5cc6c(=O)n(*)c(=O)c6cc5c4=O)cc3)cc2C(C)(C)C)cc1 (repeat unit) | 298.00 |
| *CCCCCCNC(=O)c1ccc(C(C)(CC)c2ccc(C(=O)N*)cc2)cc1 (repeat unit) | 164.00 |
| *CC(*)(C)C(=O)OCCCCCCCCCCCCOc1ccc(C(=O)Oc2ccc(-c3cccc(OC(=O)c4ccc(OC(=O)c5ccc(OCCCCCCCCCCCC)cc5)cc4)c3)cc2)cc1 (repeat unit) | 74.50 |
| *c1cccc(-c2cc(C(=O)Nc3ccc(OC(=O)c4cc(OCCCCCCCCCCCC)c(OCCCCCCCCCCCC)c(OCCCCCCCCCCCC)c4)cc3)cc(-c3cccc(N4C(=O)CC(C5C=C(C)C6C(=O)N(*)C(=O)C6C5)C4=O)c3)c2)c1 (repeat unit) | 270.00 |
| *OC(*)CCC (repeat unit) | -41.00 |
| *=Nc1cccc(S(=O)(=O)c2cccc(/N=C3/OC(=O)c4ccc(Oc5ccc6c(c5)C(=O)OC6=*)cc43)c2)c1 (repeat unit) | 190.00 |

The next lines start with the values.

| glass transition temperature [°C] | SMILES |
| --- | --- |
| 223.00 | *c1ccc(OC(=O)Nc2ccc(-c3ccc(NC(=O)Oc4ccc(-c5nc(-c6ccc(-c7nc(-c8ccc([N+](=O)[O-])cc8)c(-c8ccc([N+](=O)[O-])cc8)[nH]7)cc6)[nH]c5*)cc4)cc3OC)c(OC)c2)cc1 (repeat unit) |
| 300.00 | *c1ccc(Oc2ccc(-c3nc4cc(-c5ccc6nc(-c7ccccc7)c(*)nc6c5)ccc4nc3-c3ccccc3)cc2)cc1 (repeat unit) |
| 177.00 | *Nc1ccc(C(C)(C)c2cccc(C(C)(C)c3ccc(Nc4ccc(C(=O)c5ccc(C(=O)c6ccc(*)cc6)cc5)cc4)cc3)c2)cc1 (repeat unit) |
| 167.00 | *Oc1ccc(Oc2ccc(C(=O)c3ccc(C(=O)c4ccc(*)cc4)cc3)cc2)cc1-c1ccc(S(=O)(=O)O)c(C)c1 (repeat unit) |
| 192.00 | *c1ccc(Oc2ccc(C(C)(C)c3ccc(Oc4ccc(N5C(=O)c6ccc(Oc7ccccc7Oc7ccc8c(c7)C(=O)N(*)C8=O)cc6C5=O)cc4C(F)(F)F)cc3)cc2)c(C(F)(F)F)c1 (repeat unit) |
| 238.00 | *C(=O)Nc1ccc(Oc2ccccc2-c2ccccc2Oc2ccc(NC(=O)c3ccc4c(c3)C(=O)N(c3ccc(Oc5ccc(Oc6ccc(N7C(=O)c8ccc(*)cc8C7=O)cc6)cc5)cc3)C4=O)cc2)cc1 (repeat unit) |
| 248.70 | *c1ccc(NC(=O)Nc2ccc(NC(=O)Nc3ccc(-c4nc(C#N)c(C#N)nc4*)cc3)cc2)cc1 (repeat unit) |
